In PubChem BioAssay (NCI):
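Exposure lasted 48 hours, with cells grown in 96-well plates and compounds tested at five concentrations. TGI denotes the concentration required for complete inhibition of growth.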

Assays:
Test in all cases: growth of human tumour cells (NCI), 48 h
UACC-257 melanoma = test system: UACC-257 melanoma
RXF 393 renal = test system: RXF 393 renal
HOP-92 NSCLC = test system: HOP-92 NSCLC
HT29 colon = test system: HT29 colon
IGROV1 ovarian = test system: IGROV1 ovarian
HOP-62 NSCLC = test system: HOP-62 NSCLC
UO-31 renal = test system: UO-31 renal
SW-620 colon = test system: SW-620 colon
HCT-116 colon = test system: HCT-116 colon
NCI-H522 lung = test system: NCI-H522 lung
MDA-MB-435 = test system: MDA-MB-435
OVCAR-4 ovarian = test system: OVCAR-4 ovarian
SF-539 CNS = test system: SF-539 CNS
NCI/ADR-RES ovarian = test system: NCI/ADR-RES ovarian
SK-MEL-28 melanoma = test system: SK-MEL-28 melanoma
MDA-N = test system: MDA-N
HCT-15 colon = test system: HCT-15 colon
NCI-H460 lung = test system: NCI-H460 lung
A498 renal = test system: A498 renal
CAKI-1 renal = test system: CAKI-1 renal

SMILES	TGI (UACC-257 melanoma)	TGI (RXF 393 renal)	TGI (HOP-92 NSCLC)	TGI (HT29 colon)	TGI (IGROV1 ovarian)	TGI (HOP-62 NSCLC)	TGI (UO-31 renal)	TGI (SW-620 colon)	TGI (HCT-116 colon)	TGI (NCI-H522 lung)	TGI (MDA-MB-435)	TGI (OVCAR-4 ovarian)	TGI (SF-539 CNS)	TGI (NCI/ADR-RES ovarian)	TGI (SK-MEL-28 melanoma)	TGI (MDA-N)	TGI (HCT-15 colon)	TGI (NCI-H460 lung)	TGI (A498 renal)	TGI (CAKI-1 renal)
COC(=O)c1sc2c(=O)c(C(=O)OC)c(C(=O)OC)sc2c(=O)c1C(=O)OC	> 100 µM	> 100 µM	> 100 µM	> 100 µM	> 100 µM	> 100 µM	> 100 µM	> 100 µM	> 100 µM	65.2 µM	> 100 µM	> 100 µM	> 100 µM	> 100 µM	> 100 µM	> 100 µM	> 100 µM	> 100 µM	> 100 µM	> 100 µM
COc1ccc2nc3cc([N+](=O)[O-])ccc3c(Nc3ccc(S(=O)(=O)Nc4ncccn4)cc3)c2c1	> 100 µM	> 100 µM	> 100 µM	> 94.8 µM	> 100 µM	> 100 µM	> 100 µM	> 100 µM	> 100 µM	> 100 µM	> 100 µM	> 100 µM	> 100 µM	> 100 µM	> 100 µM	> 100 µM	> 100 µM	> 100 µM	> 81.3 µM	> 100 µM
